In patent US12446577B2 (priority 2018, dated 2025):

Assays:
[1] = system: Phytophthora infestans strain 1813E11; assay type: in vivo; conditions: 100 ppm
[2] = system: lettuce plants; assay: Phytotoxicity on lettuce plants after spraying; assay type: in vivo; conditions: 2.5% pelargonic acid, sprayed until run-off, n = 6, scale 0 to 100%
Experimental: A neutralization reaction was made with pelargonic acid (>97%) and choline hydroxide (45%) based on the titration curve (FIG. 1). Based on the titration curve, a stock solution of choline pelargonate (29.1% PLA (>97%) and 40.4% Choline hydroxide (45%)) was made by mixing 14.55 mL pelargonic acid with 15.25 mL distilled water and afterwards the addition of 20.2 mL choline hydroxide. The choline pelargonate stock solution was diluted in distilled water to obtain a diluted choline pelargonate composition comprising about 2.5% pelargonic acid. The total concentration of choline pelargonate in the water spray solution was 37.08 g a.i./L (a.i.=active ingredient).
The next step was to assess the phytotoxicity of a composition comprising choline pelargonate on lettuce plants. As a control, plants were treated with water. The plants were also treated with a diluted pelargonic acid composition, including a diluted pelargonic acid solution based on the commercial product Beloukha (Belchim Crop Protection).
Lettuce plants were sprayed with a small hand sprayer until run-off with the respective compositions and incubated at 20° C. Each composition was tested with a setup consisting out of six plants. A visual assessment was made on lettuce plants after spraying. The effect of phytotoxicity (necrosis or discolouration) was scored by a scale from 0 to 100%, with 0% no phytotoxicity and 100% fully phytotoxicity on plants.

[3] = system: Botrytis cinerea; assay: Mycelium growth inhibition on PDA (Example 7); assay type: cell-based; conditions: 3 days at 25° C; for Average mycelium diameter: n = 4
Experimental: (§1) Strains used for this trial were kept and refreshed on Potato Dextrose Agar (PDA) at 25° C.
(§2) To begin, a quantity of test product was directly added in a certain volume of PDA (about 20 mL/petri dish) (Table 11). Plugs of agar (diameter 10 mm) from one week-old cultures were placed at the centre of the PDA plates. Each object was performed in 4 repetitions. The petri dishes were then incubated at 25° C. in the dark. After 3 and 6 days of incubation, the diameter of the colonies was measured in 2 perpendicular directions. The percentage of inhibition was calculated for each product/concentration compare to the untreated.

[4] = system: Pythium ultimum; assay: Mycelium growth inhibition on PDA (Example 7); assay type: cell-based; conditions: 3 days at 25° C; for Average mycelium diameter: n = 4
Experimental: as §1, §2

[5] = system: Rhizoctonia solani; assay: Mycelium growth inhibition on PDA (Example 7); assay type: cell-based; conditions: 3 days at 25° C; for Average mycelium diameter: n = 4
Experimental: as §1, §2

[6] = system: Sclerotinia minor; assay: Mycelium growth inhibition on PDA (Example 7); assay type: cell-based; conditions: 3 days at 25° C; for Average mycelium diameter: n = 4
Experimental: as §1, §2

[7] = system: Sclerotinia sclerotiorum; assay: Mycelium growth inhibition on PDA (Example 7); assay type: cell-based; conditions: 3 days at 25° C; for Average mycelium diameter: n = 4
Experimental: as §1, §2

[8] = system: Plasmopara viticola; assay: Plasmopara viticola grapevine leaf disc test; assay type: in vivo; conditions: copper hydroxide 2 g/L, preventive spray; 7 days after the artificial inoculation
Experimental: A stock solution of choline pelargonate (29.1% PLA and 40.4% Choline hydroxide, pH 8.82) was made by mixing 14.55 mL PLA with 15.25 mL distilled water and afterwards the addition of 20.2 mL of Choline hydroxide. The choline pelargonate stock solution (42.04%) was diluted in order to create a solution with a final concentration of choline pelargonate equal to 1 mL/L and 10 mL/L. The two choline pelargonate solutions, water as negative control and copper hydroxide (2 g/L) as positive control were used for this test. For each object 4 Petri plates were prepared and each plate contains 5 grapevine leaf discs (see Table 8 below).
Leaf discs preparation: leaf discs (diameter 19 mm) were prepared from grapevine cuttings (variety Pinot Nero Entav 115) using the young leaves. 5 leaf discs were placed in each Petri Plate on autoclaved paper (4 layers), the paper was previously wetted by adding 8.5 mL of sterile water in each plate. The leaf discs were placed on the paper with the abaxial side upward.
Test products application and pathogen inoculation: leaf discs were treated with the test products at 11.30 A.M (i.e. a preventive application) and the leaves were allowed to dry. The products were sprayed with a small hand sprayer; 5 sprays were applied on each plate. The same day at 16.30 a suspension of P. viticola spores at final concentration of 2*10^5 spore/mL was applied (5 hours after test product application) on the leaf discs. The inoculated plates were incubated overnight in the dark at 25° C. The following day, the leaf discs were dried under the laminar flow and then placed back at 25° C. The disease assessment was done 7 days after the artificial inoculation.

SMILES | % efficacy compared to control (Abbott) ([3]; 0.042% a.i. in PDA) [%] | Average mycelium diameter ([3]; 0.042% a.i. in PDA) [mm] | % efficacy compared to control (Abbott) ([3]; 0.42% a.i. in PDA) [%] | Average mycelium diameter ([3]; 0.42% a.i. in PDA) [mm] | % efficacy compared to control (Abbott) ([4]; 0.042% a.i. in PDA) [%] | Average mycelium diameter ([4]; 0.042% a.i. in PDA) [mm] | % efficacy compared to control (Abbott) ([4]; 0.42% a.i. in PDA) [%] | Average mycelium diameter ([4]; 0.42% a.i. in PDA) [mm] | % efficacy compared to control (Abbott) ([5]; 0.042% a.i. in PDA) [%] | Average mycelium diameter ([5]; 0.042% a.i. in PDA) [mm] | % efficacy compared to control (Abbott) ([5]; 0.42% a.i. in PDA) [%] | Average mycelium diameter ([5]; 0.42% a.i. in PDA) [mm] | % efficacy compared to control (Abbott) ([6]; 0.042% a.i. in PDA) [%] | Average mycelium diameter ([6]; 0.042% a.i. in PDA) [mm] | % efficacy compared to control (Abbott) ([6]; 0.42% a.i. in PDA) [%] | Average mycelium diameter ([6]; 0.42% a.i. in PDA) [mm] | % efficacy compared to control (Abbott) ([7]; 0.042% a.i. in PDA) [%] | Average mycelium diameter ([7]; 0.042% a.i. in PDA) [mm] | % efficacy compared to control (Abbott) ([7]; 0.42% a.i. in PDA) [%] | Average mycelium diameter ([7]; 0.42% a.i. in PDA) [mm] | other results
O=[N+]([O-])c1cc(C(F)(F)F)c(Cl)c([N+](=O)[O-])c1Nc1ncc(C(F)(F)F)cc1Cl [Fluazinam] | – | – | – | – | – | – | – | – | – | – | – | – | – | – | – | – | – | – | – | – | Disease severity (%) on potato leaf discs, Mean ([1]; mean of 5 leaf discs, six days after inoculation): 0%; efficacy ([1]; potato leaf discs): 100%; Disease severity (%) on potato leaf discs ([1]; single leaf discs a-e, six days after inoculation): 0%
CCCCCCCCC(=O)O [Pelargonic acid, pelargonic acid, reference compound] | – | – | – | – | – | – | – | – | – | – | – | – | – | – | – | – | – | – | – | – | Phytotoxicity (%) evaluation on lettuce plants ([2]; 0 DAA): 0.00%; Phytotoxicity (%) evaluation on lettuce plants ([2]; 1 DAA): 60.00%; Phytotoxicity (%) evaluation on lettuce plants ([2]; 2 DAA): 60.83%; Phytotoxicity (%) evaluation on lettuce plants ([2]; 7 DAA): 70.00%
CCCCCCCCCC(=O)[O-].C[N+](C)(C)CCO [TMAD, choline decanoate] | 84 | 7.0 ± 10.7 | 95 | 2.0 ± 4.0 | 100 | 0.0 ± 0.0 | 100 | 0.0 ± 0.0 | 48 | 27.3 ± 6.9 | 99 | 0.4 ± 0.8 | 98 | 1.5 ± 1.8 | 99 | 0.5 ± 0.6 | 97 | 2.1 ± 1.7 | 100 | 0.0 ± 0.0 | –
CCCCCCCC(=O)[O-].C[N+](C)(C)CCO [TMAO, choline octanoate] | 72 | 12.1 ± 11.0 | 100 | 0.0 ± 0.0 | 100 | 0.0 ± 0.0 | 100 | 0.0 ± 0.0 | 64 | 18.9 ± 3.8 | 100 | 0.0 ± 0.0 | 96 | 2.5 ± 2.9 | 100 | 0.0 ± 0.0 | 98 | 1.3 ± 0.3 | 100 | 0.0 ± 0.0 | –
[Cu+2].[OH-].[OH-] [copper, copper hydroxide, reference compound] | – | – | – | – | – | – | – | – | – | – | – | – | – | – | – | – | – | – | – | – | disease symptoms on the leaf discs [8]: did not show any disease symptoms
